Reference: patent publication US20230147993A1, “THIOPHENE COMPOUNDS WITH CYCLIC AMIDES, AND USES THEREOF” (Capulus Therapeutics, LLC, priority 2019, published 2023)

Tests used:
ACACA = experiment: Gene expression in HepG2 cells (qPCR), ACACA; format: cell-based; settings: for 48 hours, normalized to β-Actin, relative to mock or vehicle treated cells (ΔΔCT)
Method: Gene Expression: The effect of selected compounds on the gene expression of HepG2 cells was evaluated. HepG2 cells (P2) were seeded in 24 well plate (80,000 cells/well) for RNA extraction and in a 96 well plate (10,000 cells/well) for Cell Titer Glow (CTG). The media used was DMEM and contained 10% FBS. Each compound was evaluated at […] for 48 hours. Two biological replicates per experimental group were evaluated for RNA. For gene analysis, RNA was harvested with RNEasy kit and 20-100 ng used to synthesize cDNA with random primers. Quantitative PCR was performed on 1 pg to 100 ng cDNA for the following genes: ACACA, ACLY, FASN, LSS, PNPLA3. Gene expression levels were normalized with housekeeping gene, β-Actin, and relative expression levels determined using ΔΔCT method comparing treated to mock or vehicle treated cells as a baseline. “Total” gene expression refers to the average of the values of the 5 genes listed above.

[1] = Stability in mouse liver microsomes; format: in vitro ADME
Method: (§1) Half-life Human Microsomes: Compounds were evaluated for stability in human liver microsomes. A 10 mM stock solution of the compound being evaluated was prepared in DMSO and diluted with water:acetonitrile (1:1) to a concentration of 1 mM. A working concentration of 100 μM was prepared by further dilution with water:acetonitrile (1:1). To make the preincubation mixture, 2.5 μL of the diluted compound was combined with 75 μL of human liver microsomes at 3.33 mg/mL, and 85 μL of 100 mM potassium phosphate buffer, and this mixture was pre-incubated for 10 min at 37° C. To make the 60 minute mixture without cofactor, 32.5 μL of the preincubation mixture was combined with 17.5 μL of 100 mM potassium phosphate buffer and incubated for 60 min at 37° C. To make the 0 min sample with cofactor (NADPH), 16.25 μL of the preincubation mixture was combined with 200 μL of acetonitrile containing internal standard and 8.75 μL of cofactor (NADPH). To make the incubation mixture, 62 μL of cofactor (2.85 mM) was combined with the remaining incubation mixture, and incubated for 60 min at 37° C. To prepare the sample mixture to be evaluated, 25 μL incubation mixture was combined with 200 μL of acetonitrile containing internal standard and vortexed for 5 min at 1200 rpm, then centrifuged for 10 min at 4000 rpm. The supernatant was diluted 2 fold with water and injected on LC-MS/MS. The sample mixture was evaluated by LC-MS/MS using 10 mM ammonium acetate with 0.1% FA as the aqueous mobile phase, and methanol as the organic mobile phase.
Half-life Mouse Microsomes: Compounds were evaluated in mouse liver microsomes following a similar procedure as described above for human liver microsomes. A similar procedure could be used to evaluate compounds in rat liver microsomes.

[2] = Stability in human liver microsomes; format: in vitro ADME; settings: 60 min at 37° C., NADPH
Method: as §1

SREBP = experiment: Reporter Screening Assay (SRE-luciferase reporter, HepG2); format: cell-based; settings: Homo sapiens, SREBPv1 Reporter cell line HepG2, 24 hours, 0.01 uM to 10 uM, read-out: I: Reporter Screening Assay (Ave EC50 (nM))
Method: Reporter Screening Assay: This assay was used to evaluate the effect on transcriptional activity SREBP of selected compounds using an SRE-luciferase reporter construct. On day 1, 10,000 cells were seeded in a 96 well (white) plate as per the plate map in Growth media without antibiotics. Cells were incubated at 37° C. for 8 hours. After 8 hours, cells were washed with DPBS for complete removal of FBS. DPBS was completely removed and Growth media was replaced with phenol free treatment medium (90 μl) with different FBS concentrations. The cells were then incubated at 37° C. for 24 hours with varying doses (0.01 uM to 10 uM) of compounds. Then a Luciferase assay was performed.
Reagents for performing Luciferase assay were stored at −20° C. To a tube of lyophilized assay substrate was added 1 mL Substrate Solvent and mixed well. The Substrate tube after reconstitution was covered with aluminum foil so as to keep it protected from light. The assay buffer was thawed to room temperature. To 20 mL Assay Buffer was added 200 µL of reconstituted 100× Substrate and mixed well. The reconstituted substrate as well as the assay solution (buffer + substrate) was protected from light throughout the procedure by keeping it covered with aluminum foil. Using a multi-channel pipette, 100 μL Assay Solution (buffer + substrate) was added directly to each sample well in Plate 1, which was incubated for 30 min (plate was covered with aluminum foil). After 30 min incubation, the plate was read for total luminescence. Each well was read for 2 seconds in a plate luminometer. (Microplate reader Envision Microplate reader from Perkin Elmer). Precaution was taken to incubate plate exactly for 30 min prior to reading on the plate reader.
Reporter Assay Materials: SREBPv1 Reporter cell line: HepG2-#32251. Growth Medium: MEM (Corning 10-010), 10% FBS, 1% GlutaMax (Invitrogen Catalog #35050061), […] (Invitrogen Catalog #A1113803) and 1% Penicillin-Streptomycin (Pen-Strep). Treatment Media: Phenol-free MEM (Invitrogen Catalog #51200-038) and 1% GlutaMax (Invitrogen Catalog #35050061). Luciferase Assay: LightSwitch Luciferase Assay Kit (Catalog #32032). LDH assay: Pierce LDH Cytotoxicity Assay Kit (Catalog #SD249616).

SMILES | A: ACACA, effect of compounds on gene expression of HepG2 cells (ACACA) | percent remaining after 60 min in mouse liver microsomes [1] | percent remaining after 60 min in human liver microsomes [2] | EC50 (SREBP)
O=C(c1ccc(-c2cc(-c3ccnc(C4(O)CCC4)c3)cs2)c(Cl)c1)N1CCC(O)CC1 [Compound I-1629076, (3-chloro-4-(4-(2-(1-hydroxycyclobutyl)pyridin-4-yl)thiophen-2-yl)phenyl)(4-hydroxypiperidin-1-yl)methanone] | ++ (0.31-0.7509 = ++) | +++ (≥60.1 = +++) | +++ (≥60.1 = +++) | < 249 nM
O=C(c1ccc(-c2cc(-c3ccnc(C4CCCO4)c3)cs2)c(Cl)c1)N1CCC(O)CC1 (centres unmarked) [Compound I-1628777, (3-chloro-4-(4-(2-(tetrahydrofuran-2-yl)pyridin-4-yl)thiophen-2-yl)phenyl)(4-hydroxypiperidin-1-yl)methanone] | ++ (0.31-0.7509 = ++) | +++ (≥60.1 = +++) | + (0-30 = +) | 250 to 500 nM
O=C(c1ccc(-c2cc(-c3ccnc4c3OCCN4)cs2)c(Cl)c1)N1CCC(O)CC1 [Compound I-1629067, (3-chloro-4-(4-(3,4-dihydro-2H-pyrido[3,2-b][1,4]oxazin-8-yl)thiophen-2-yl)phenyl)(4-hydroxypiperidin-1-yl)methanone] | ++ (0.31-0.7509 = ++) | + (0-30 = +) | + (0-30 = +) | < 249 nM
O=C(c1ccc(-c2cc(-c3ccnc(C4(O)COC4)c3)cs2)c(Cl)c1)N1CCC(O)CC1 [Compound I-1629083, (3-chloro-4-(4-(2-(3-hydroxyoxetan-3-yl)pyridin-4-yl)thiophen-2-yl)phenyl)(4-hydroxypiperidin-1-yl)methanone] | + (>0.751 = +) | +++ (≥60.1 = +++) | +++ (≥60.1 = +++) | 250 to 500 nM
O=C(c1ccc(-c2cc(-c3ccnc4c3OCCO4)cs2)c(Cl)c1)N1CCC(O)CC1 [Compound I-1629066, (3-chloro-4-(4-(2,3-dihydro-[1,4]dioxino[2,3-b]pyridin-8-yl)thiophen-2-yl)phenyl)(4-hydroxypiperidin-1-yl)methanone] | ++ (0.31-0.7509 = ++) | ++ (30.1-60 = ++) | ++ (30.1-60 = ++) | < 249 nM
O=C(c1ccc(-c2cc(-c3ccnc(C4(CO)CC4)c3)cs2)c(Cl)c1)N1CCC(O)CC1 [Compound I-1628961, (3-chloro-4-(4-(2-(1-(hydroxymethyl)cyclopropyl)pyridin-4-yl)thiophen-2-yl)phenyl)(4-hydroxypiperidin-1-yl)methanone] | ++ (0.31-0.7509 = ++) | +++ (≥60.1 = +++) | +++ (≥60.1 = +++) | < 249 nM
O=C(c1ccc(-c2cc(-c3ccnc4c3NCCN4)cs2)c(Cl)c1)N1CCC(O)CC1 [Compound I-1629068, (3-chloro-4-(4-(l,2,3,4-tetrahydropyrido[2,3-b]pyrazin-8-yl)thiophen-2-yl)phenyl)(4-hydroxypiperidin-1-yl)methanone] | ++ (0.31-0.7509 = ++) | + (0-30 = +) | ++ (30.1-60 = ++) | < 249 nM
CC1(O)CCN(C(=O)c2ccc(-c3cc(-c4ccnc(C5(CO)CC5)c4)cs3)c(Cl)c2)CC1 [Compound I-1629069, (3-chloro-4-(4-(2-(l-(hydroxymethyl)cyclopropyl)pyridin-4-yl)thiophen-2-yl)phenyl)(4-hydroxy-4-methylpiperidin-1-yl)methanone] | + (>0.751 = +) | + (0-30 = +) | + (0-30 = +) | > 500 nM
O=C(c1ccc(-c2cc(-c3ccnc(CC4(F)CCC4)c3)cs2)c(Cl)c1)N1CCC(O)CC1 [Compound I-1629078, (3-chloro-4-(4-(2-((1-fluorocyclobutyl)methyl)pyridin-4-yl)thiophen-2-yl)phenyl)(4-hydroxypiperidin-1-yl)methanone] | ++ (0.31-0.7509 = ++) | +++ (≥60.1 = +++) | + (0-30 = +) | < 249 nM
O=C(c1ccc(-c2cc(-c3ccnc(C4CCOC4)c3)cs2)c(Cl)c1)N1CCC(O)CC1 (centres unmarked) [Compound I-1628763, (3-chloro-4-(4-(2-(tetrahydrofuran-3-yl)pyridin-4-yl)thiophen-2-yl)phenyl)(4-hydroxypiperidin-1-yl)methanone] | ++ (0.31-0.7509 = ++) | +++ (≥60.1 = +++) | + (0-30 = +) | < 249 nM
O=C(c1ccc(-c2cc(-c3ccnc4c3NCCO4)cs2)c(Cl)c1)N1CCC(O)CC1 [Compound I-1629084, (3-chloro-4-(4-(2,3-dihydro-1H-pyrido[2,3-b][l,4]oxazin-8-yl)thiophen-2-yl)phenyl)(4-hydroxypiperidin-1-yl)methanone] | ++ (0.31-0.7509 = ++) | ++ (30.1-60 = ++) | + (0-30 = +) | < 249 nM
